Where a SMILES comes first, the peptide text is derived from it. Bridges are numbered along the chain shown (N, C = ends).
Legend:
CEM-SS (Homo sapiens) = assay: Cytotoxicity against human CEM-SS cells
[1] = test system: Human immunodeficiency virus 1; assay: Antiviral activity against HIV1; assay type: functional, organism-based

SMILES	IC50 (CEM-SS (Homo sapiens)) [nM]	EC50 [1] [nM]
CC[C@H](C)[C@@H]1NC(=O)[C@H](C)NC(=O)[C@H](C)NC(=O)[C@H](CO)NC(=O)[C@H]([C@@H](C)CC)NC(=O)[C@@H]2CSSC[C@@H]3NC(=O)[C@H](C(C)C)NC(=O)[C@H](CCCCN)NC(=O)[C@H](CC(N)=O)NC(=O)[C@H](CCCCN)NC(=O)[C@@H]4CSSC[C@H](NC(=O)[C@H](CO)NC(=O)[C@H](CCC(=O)O)NC(=O)CNC(=O)[C@H](CSSC[C@H](NC(=O)CNC1=O)C(=O)N[C@@H](CO)C(=O)N4)NC(=O)[C@@H]1CCCN1C(=O)[C@H]([C@@H](C)CC)NC(=O)[C@H](C)NC(=O)[C@H](CCCNC(=N)N)NC(=O)[C@H](Cc1ccc(O)cc1)NC3=O)C(=O)N[C@@H](C(C)C)C(=O)N[C@@H](Cc1c[nH]c3ccccc13)C(=O)N[C@@H]([C@@H](C)CC)C(=O)N1CCC[C@H]1C(=O)N2 [CIRCULIN F] (cyclo(AAIGCSCKNKVCYRAIPCGESCVWIPCIS); disulfide 5-18, 7-22, 12-27)	500	
CC[C@H](C)[C@@H]1NC(=O)CNC(=O)[C@H](CC(N)=O)NC(=O)[C@H](CCCNC(=N)N)NC(=O)[C@H](Cc2ccc(O)cc2)NC(=O)[C@@H]2CSSC[C@@H]3NC(=O)[C@@H]4CCCN4C(=O)[C@H]([C@@H](C)CC)NC(=O)[C@H](Cc4ccccc4)NC(=O)[C@H](C(C)C)NC(=O)[C@@H]4CSSC[C@H](NC(=O)[C@H](CO)NC(=O)[C@H](CSSC[C@H](NC(=O)[C@@H]5CCCN5C1=O)C(=O)NCC(=O)N[C@@H](CCC(=O)O)C(=O)N[C@@H](CO)C(=O)N4)NC(=O)CNC(=O)[C@H](C)NC(=O)[C@H](C(C)C)NC(=O)[C@H]([C@@H](C)O)NC(=O)[C@H]([C@@H](C)O)NC(=O)[C@H](CC(C)C)NC3=O)C(=O)N[C@@H](CCCCN)C(=O)N[C@@H](CC(N)=O)C(=O)N[C@@H](CCCCN)C(=O)N[C@@H](C(C)C)C(=O)N2 [CYCLOVIOLIN C] (cyclo(AGCSCKNKVCYRNGIPCGESCVFIPCLTTV); disulfide 3-17, 5-21, 10-26)	560	130
CC[C@H](C)[C@@H]1NC(=O)[C@H](CO)NC(=O)[C@H]([C@@H](C)O)NC(=O)[C@H](Cc2ccc(O)cc2)NC(=O)[C@@H]2CSSC[C@@H]3NC(=O)[C@H](C(C)C)NC(=O)[C@H](CCCCN)NC(=O)[C@H](CC(N)=O)NC(=O)[C@H](CCC(=O)O)NC(=O)[C@@H]4CSSC[C@H](NC(=O)[C@H](CO)NC(=O)[C@H](CCC(=O)O)NC(=O)CNC(=O)[C@H](CSSC[C@H](NC(=O)[C@H](CC(N)=O)NC(=O)[C@H](Cc5ccccc5)NC1=O)C(=O)N[C@@H](CCCCN)C(=O)N4)NC(=O)[C@@H]1CCCN1C(=O)[C@H]([C@@H](C)CC)NC(=O)[C@H](CCCCN)NC(=O)[C@H](CC(=O)O)NC(=O)[C@H](Cc1cnc[nH]1)NC(=O)[C@H](Cc1ccc(O)cc1)NC3=O)C(=O)N[C@@H](C(C)C)C(=O)N[C@@H](Cc1c[nH]c3ccccc13)C(=O)N[C@@H]([C@@H](C)CC)C(=O)N1CCC[C@H]1C(=O)N2 [CIRCULIN D] (cyclo(CENKVCYHDKIPCGESCVWIPCYTSIFNCK); disulfide 1-17, 6-22, 13-29)	500	
CC[C@H](C)[C@@H]1NC(=O)[C@H](CCCCN)NC(=O)[C@H](CC(=O)O)NC(=O)[C@H](Cc2cnc[nH]2)NC(=O)[C@H](Cc2ccc(O)cc2)NC(=O)[C@@H]2CSSC[C@@H]3NC(=O)[C@@H]4CCCN4C(=O)[C@H]([C@@H](C)CC)NC(=O)[C@H](Cc4c[nH]c5ccccc45)NC(=O)[C@H](C(C)C)NC(=O)[C@@H]4CSSC[C@H](NC(=O)[C@H](CCCCN)NC(=O)[C@H](CSSC[C@H](NC(=O)[C@@H]5CCCN5C1=O)C(=O)NCC(=O)N[C@@H](CCC(=O)O)C(=O)N[C@@H](CO)C(=O)N4)NC(=O)[C@H](CC(N)=O)NC(=O)[C@H](Cc1ccccc1)NC(=O)[C@H](C(C)C)NC(=O)[C@H](CO)NC(=O)[C@H]([C@@H](C)O)NC(=O)[C@H](CC(C)C)NC3=O)C(=O)N[C@@H](CCC(=O)O)C(=O)N[C@@H](CC(N)=O)C(=O)N[C@@H](CCCCN)C(=O)N[C@@H](C(C)C)C(=O)N2 [CIRCULIN E] (cyclo(CENKVCYHDKIPCGESCVWIPCLTSVFNCK); disulfide 1-17, 6-22, 13-29)	500	
CC(C)C[C@@H]1NC(=O)[C@H](C(C)C)NC(=O)[C@H](Cc2ccc(O)cc2)NC(=O)[C@@H]2CSSC[C@@H]3NC(=O)[C@H]([C@@H](C)O)NC(=O)[C@@H]4CSSC[C@H](NC(=O)[C@H](C)NC(=O)[C@H]([C@@H](C)O)NC(=O)CNC(=O)[C@H](CC(N)=O)NC(=O)[C@H](CCCCN)NC(=O)[C@H](Cc5ccccc5)NC(=O)[C@H](CSSC[C@H](NC(=O)[C@@H]5CCCN5C1=O)C(=O)N[C@@H](Cc1ccccc1)C(=O)N[C@@H]([C@@H](C)O)C(=O)N[C@@H](C(C)C)C(=O)NCC(=O)N4)NC(=O)[C@H](CCC(N)=O)NC(=O)[C@H](CO)NC(=O)[C@H](CO)NC(=O)[C@H]([C@@H](C)O)NC3=O)C(=O)NCC(=O)N[C@@H](CCC(=O)O)C(=O)N[C@@H](CO)C(=O)N2 [CYCLOVIOLIN B] (cyclo(ACGESCYVLPCFTVGCTCTSSQCFKNGT); disulfide 2-16, 6-18, 11-23)	560	130
CC[C@H](C)[C@@H]1NC(=O)[C@@H]2CSSC[C@@H]3NC(=O)[C@H](C(C)C)NC(=O)[C@H](CCCCN)NC(=O)[C@H](CO)NC(=O)[C@H](CCCCN)NC(=O)[C@@H]4CSSC[C@H](NC(=O)[C@H](CO)NC(=O)[C@H](CCC(=O)O)NC(=O)CNC(=O)[C@H](CSSC[C@H](NC(=O)CNC(=O)[C@H](C)NC(=O)[C@H](C(C)C)NC(=O)[C@H](CO)NC(=O)[C@H]([C@@H](C)O)NC1=O)C(=O)N[C@@H](CO)C(=O)N4)NC(=O)[C@@H]1CCCN1C(=O)[C@H]([C@@H](C)CC)NC(=O)CNC(=O)[C@H](CC(N)=O)NC(=O)[C@H](CCCNC(=N)N)NC(=O)[C@H](Cc1ccc(O)cc1)NC3=O)C(=O)N[C@@H](C(C)C)C(=O)N[C@@H](Cc1ccccc1)C(=O)N[C@@H]([C@@H](C)CC)C(=O)N1CCC[C@H]1C(=O)N2 [CIRCULIN C] (cyclo(AGCSCKSKVCYRNGIPCGESCVFIPCITSV); disulfide 3-17, 5-21, 10-26)	500	
CC[C@H](C)[C@@H]1NC(=O)[C@H](C)NC(=O)[C@H](C)NC(=O)[C@H](CO)NC(=O)[C@H]([C@@H](C)CC)NC(=O)[C@@H]2CSSC[C@@H]3NC(=O)[C@H](C(C)C)NC(=O)[C@H](CCCCN)NC(=O)[C@H](CC(N)=O)NC(=O)[C@H](CCCCN)NC(=O)[C@@H]4CSSC[C@H](NC(=O)[C@H](CO)NC(=O)[C@H](CCC(=O)O)NC(=O)CNC(=O)[C@H](CSSC[C@H](NC(=O)CNC1=O)C(=O)N[C@@H](CO)C(=O)N4)NC(=O)[C@@H]1CCCN1C(=O)[C@H](Cc1ccccc1)NC(=O)CNC(=O)[C@H](CC(N)=O)NC(=O)[C@H](CCCNC(=N)N)NC(=O)[C@H](Cc1ccc(O)cc1)NC3=O)C(=O)N[C@@H](C(C)C)C(=O)N[C@@H](Cc1ccccc1)C(=O)N[C@@H]([C@@H](C)CC)C(=O)N1CCC[C@H]1C(=O)N2 [CYCLOVIOLIN D] (cyclo(AAIGCSCKNKVCYRNGFPCGESCVFIPCIS); disulfide 5-19, 7-23, 12-28)	560	130
